Experimental data taken from patent US4067899A, “Terpenophenols” (Societe Anonyme dite: MAR-PHA, Societe d'Etude et …, priority 1974, dated 1978).
Converted amounts (≈) assume the structure as drawn.

Legend:
Assay in all cases: Bacteriostatic activity by the method of streaks in gelose media, minimum inhibitory concentration
Assay type in all cases: cell-based
Staphylococcus Aureus = conditions: streaks from 24 hour old culture, gram + ve, read-out: Minimal inhibitory concentration Staphylococcus Aureus
Experimental: (§1) The bacteriostatic activity of the phenols according to the invention has been evaluated by the method of streaks in gelose media. This method comprises making increasing dilutions of the product to be tested, in nutritive geloses poured into a Petri dish.
(§2) The various bacteria to be studied are then introduced onto the geloses in parallel streaks by means of a platinum loop which has been immersed in a 24 hour old culture of each bacteria.
(§3) The activity of these compounds has been studied vis a vis two gram + ve bacteria, namely Staphylococcus Aureus and Streptococcus Pyrogenes.

Streptococcus Pyrogenes = conditions: streaks from 24 hour old culture, gram + ve, read-out: Minimal inhibitory concentration Streptococcus Pyrogenes
Experimental: as §1, §2, §3

Escherichia Coli = conditions: streaks from 24 hour old culture, read-out: Minimal inhibitory concentration Escherichia Coli
Experimental: as §1, §2

Compound | MIC (Staphylococcus Aureus) [µg/mL] | MIC (Streptococcus Pyrogenes) [µg/mL] | MIC (Escherichia Coli) [µg/mL]
Cc1cc(O)c(C2CC3CCC2(C)C3(C)C)cc1[N+](=O)[O-] (centres unmarked) [Example 1, 2-isobornyl-4-nitro-5-methylphenol] | 1 | 7.5 | 
CC1(C)C2CCC1(C)C(c1cc(Cl)ccc1O)C2 (centres unmarked) [Example 11, 2-isobornyl-4-chlorophenol] | 2.5 | 10 | 
CC1C2CC(CC2c2cc(Br)ccc2O)C1(C)C (centres unmarked) [Example 6, 2-isocamphyl-4-bromophenol] | 2.5 | 5 | 
O=[N+]([O-])c1ccc(O)c(C2CC3CCC2C3)c1 (stereo not drawn) [Example 5, 2-exo-norbornyl-4-nitrophenol] | 5 | 10 | 
CC1(C)C2CCC1(C)C(c1cc(Br)ccc1O)C2 (centres unmarked) [Example 4, 2-isobornyl-4-bromophenol] | 2 | 30 | 
Oc1ccc(Br)cc1C1CC2CCC1C2 (stereo not drawn) [Example 8, 2-exo-norbornyl-4-bromophenol] | 7.5 | 20 | 7.5 (≈ 28.1 µM)
Cc1cc(O)c(C2CC3CCC2(C)C3(C)C)cc1Cl (centres unmarked) [Example 7, 2-isobornyl-4-chloro-5-methylphenol] | 2.5 | 5 | 
Cc1cc(O)c(C2CC3CCC2C3)cc1Br (stereo not drawn) [Example 9, 2-exo-norbornyl-4-bromo-5-methylphenol] | 5 |  | 20 (≈ 71.1 µM)
CC1(C)C2CCC1(C)C(c1cc([N+](=O)[O-])ccc1O)C2 (centres unmarked) [Example 3, 2-isobornyl-4-nitrophenol] | 1 | 5 | 
CC1(C)C2CCC1(C)C(c1cc(C#N)ccc1O)C2 (centres unmarked) [Example 16, 2-isobornyl-4-cyano phenol] | 5 | 7.5 | 
COc1cc(C)c(O)cc1C1CC2CCC1(C)C2(C)C (centres unmarked) [Example 12, 2-methyl-4-methoxy-5-isobornyl phenol] | 5 |  | 
Cc1cc(O)c(C2CC3CCC2(C)C3(C)C)cc1C#N (centres unmarked) [Example 15, 2-isobornyl-4-cyano-5-methylphenol] | 5 | 10 | 
Cc1cc(O)c(C2CC3CCC2(C)C3(C)C)cc1Br (centres unmarked) [Example 2, 2-isobornyl-4-bromo-5-methyl-phenol] | 5 | 15 | 
Cc1ccc(O)c(C2CC3CC2C(C)C3(C)C)c1 (centres unmarked) [Example 13, 2-isocamphyl-4-methylphenol] | 5 | 20 | 
COc1ccc(O)cc1C1CC2CCC1(C)C2(C)C (centres unmarked) [Example 14, 3-isobornyl-4-methoxyphenol] | 5 | 10 | 
Oc1ccc(Cl)cc1C1CC2CCC1C2 (stereo not drawn) [Example 10, 2-exo-norbornyl-4-chlorophenol] | 5 |  | 10 (≈ 44.9 µM)
